# According to US4344949A, “Substituted acyl derivatives of 1,2,3,4-tetrahydroisoquinoline-3-carboxylic acids” (Warner-Lambert Company, priority 1981, dated 1982):
# pIC50: −log10 of the molar value. Counter-ions that a name gives are not always drawn.
# Target: T1, guinea pig serum ACE (angiotensin converting enzyme) (Cavia porcellus, UniProt H0UWL7)
# T1 construct: ACE from guinea pig serum; from tissue; host or cells: guinea pig serum
# T1 sequence (H0UWL7 33-1302): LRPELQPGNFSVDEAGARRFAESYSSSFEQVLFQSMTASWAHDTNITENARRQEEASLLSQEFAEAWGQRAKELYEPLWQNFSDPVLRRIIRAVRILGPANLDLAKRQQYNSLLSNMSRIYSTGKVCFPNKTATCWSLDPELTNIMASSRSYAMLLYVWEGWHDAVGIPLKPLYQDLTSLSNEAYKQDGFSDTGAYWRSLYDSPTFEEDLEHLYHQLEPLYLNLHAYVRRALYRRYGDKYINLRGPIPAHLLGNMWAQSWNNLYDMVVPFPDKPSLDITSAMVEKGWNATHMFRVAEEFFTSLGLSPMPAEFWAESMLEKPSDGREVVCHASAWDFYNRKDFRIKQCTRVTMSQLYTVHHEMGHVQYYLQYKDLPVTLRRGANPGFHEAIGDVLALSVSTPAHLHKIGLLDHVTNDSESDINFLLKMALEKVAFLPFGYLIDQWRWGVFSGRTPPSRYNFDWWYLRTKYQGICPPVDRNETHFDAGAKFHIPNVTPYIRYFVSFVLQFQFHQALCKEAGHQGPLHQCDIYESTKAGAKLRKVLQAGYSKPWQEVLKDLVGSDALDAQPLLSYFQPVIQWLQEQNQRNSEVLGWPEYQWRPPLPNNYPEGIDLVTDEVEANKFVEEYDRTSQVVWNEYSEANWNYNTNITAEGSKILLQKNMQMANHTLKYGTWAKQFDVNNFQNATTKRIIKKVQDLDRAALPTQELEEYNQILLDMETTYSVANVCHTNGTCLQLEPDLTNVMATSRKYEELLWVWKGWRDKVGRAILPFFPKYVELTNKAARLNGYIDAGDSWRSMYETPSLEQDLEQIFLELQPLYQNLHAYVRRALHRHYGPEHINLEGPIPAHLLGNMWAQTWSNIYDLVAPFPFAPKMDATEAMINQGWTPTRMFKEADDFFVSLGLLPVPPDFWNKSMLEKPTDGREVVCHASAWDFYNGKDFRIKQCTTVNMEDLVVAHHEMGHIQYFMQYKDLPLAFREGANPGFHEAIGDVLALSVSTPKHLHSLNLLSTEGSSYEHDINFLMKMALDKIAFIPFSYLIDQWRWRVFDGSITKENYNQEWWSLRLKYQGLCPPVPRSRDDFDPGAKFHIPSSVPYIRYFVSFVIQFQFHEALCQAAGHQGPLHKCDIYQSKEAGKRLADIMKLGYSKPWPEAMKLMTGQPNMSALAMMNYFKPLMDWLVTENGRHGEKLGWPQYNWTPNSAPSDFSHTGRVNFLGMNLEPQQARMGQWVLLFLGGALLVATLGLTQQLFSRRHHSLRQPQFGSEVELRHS
# Experiment: In vitro ACE assay (angiotensin converting enzyme inhibitory activity, guinea pig serum ACE, 3H-hippuryl-glycyl-glycine substrate)
# Assay type: biochemical
# Details: 10 min preincubation, 60 min incubation at 37° C., S,S,S configuration, hydrochloride salt (+) or maleate salt (#) by footnote, read-out: ACE I Activity (in vitro) IC50 Molar Conc.
# Method: In vitro ACE Assay: Angiotensin converting enzyme (ACE) inhibitory activity was determined by assaying guinea pig serum ACE in the presence and absence of the test compound. ACE from guinea pig serum and the test compounds were preincubated for 10 minutes before the addition of the labelled substrate ^3 H-hippuryl-glycyl-glycine. After a 60 minute incubation of 37° C. the reaction was stopped by the addition of 0.1 N HCl. ACE cleaves the hippuryl-glycyl bond to form the dipeptide glycyl-glycine and ^3 H-hippuric acid. The ^3 H-hippuric acid was then extracted with ethyl acetate and the ACE activity of a given sample calculated as the amount of ^3 H-hippuric acid generated.
row,Structure (SMILES),pIC50
1,"CCOC(=O)[C@H](CCc1ccccc1)N[C@@H](C)C(=O)N1Cc2cc(OC)c(OC)cc2C[C@H]1C(=O)O [R=H, R2=Et, X=OCH3, Y=OCH3, 2-[2-[[1-(Ethoxycarbonyl)-3-phenylpropyl]amino]-1-oxopropyl]-1,2,3,4-tetrahydro-6,7-dimethoxy-3-isoquinolinecarboxylic Acid, Hydrochloride, Hydrate (S,S,S)]",8.25
2,"CCOC(=O)[C@H](CCc1ccccc1)N[C@@H](C)C(=O)N1Cc2ccccc2C[C@H]1C(=O)OCc1ccccc1 [R=PhCH2, R2=Et, X=H, Y=H, 2-[2-[[1-(Ethoxycarbonyl)-3-phenylpropyl]amino]-1-oxopropyl]-1,2,3,4-tetrahydro-3-isoquinolinecarboxylic Acid, Phenylmethyl Ester, Maleate (S,S,S)]",5.70
3,"CCOC(=O)[C@H](CCc1ccccc1)N[C@@H](C)C(=O)N1Cc2cc(OC)c(OC)cc2C[C@H]1C(=O)OCc1ccccc1 [R=PhCH2, R2=Et, X=OCH3, Y=OCH3, 2-[2-[[1-(Ethoxycarbonyl)-3-phenylpropyl]amino]-1-oxopropyl]-1,2,3,4-tetrahydro-6,7-dimethoxy-3-isoquinolinecarboxylic Acid, Phenylmethyl Ester, Maleate (S,S,S)]",6.52
4,"CCOC(=O)[C@H](CCc1ccccc1)N[C@@H](C)C(=O)N1Cc2ccccc2C[C@H]1C(=O)OC(C)(C)C [R=t-Bu, R2=Et, X=H, Y=H]",5.49
